Data: patent publication US20250386824A1, “COMPOSITION OF AN ORGANIC SULFIDE COMBINED WITH GLUCOSE AND USE THEREOF IN CONTROLLING MELON FUSARIUM WILT” (CH BIOTECH R&D CO., LTD., priority 2024, published 2025)

Columns and labels:
[1] = system: Fusarium oxysporum f.sp. melonis; assay: Greenhouse pot test: disease severity of melon Fusarium wilt after foliar spraying and root-cut inoculation; type: in vivo; details: Example 1, FIG. 1: 3% (w/v) glucose + 1% (w/v) organic sulfide, 400-fold dilution, foliar spray at 7 and 14 days of age; 3 weeks after inoculation; untreated control 2.33±0.21; mean ± SE
Protocol: Preparation of the inoculation source of Fusarium oxysporum f.sp. melonis (FOM): the soil-borne pathogen FOM strain used in the example is isolated from diseased melon plants in Wufeng District, Taichung City (24°02′24.6 ″N 120°39′55.0 ″E). The single spores of the strain are independently cultured on potato dextrose agar (PDA; Difco®) medium plates in a 25° C. incubator with 12 hours of light exposure per day. The mycelial pieces of the FOM strain are inoculated into ½ potato dextrose broth (PDB) and incubated in shaking flasks for 14 days. After the incubation, the culture is filtered through a double-layer Miracloth (475855 Calbiochem, Merk Darmstadt, Germany) to obtain a spore suspension with a concentration of 10^5 spores/mL, which is ready to be used in the pathogenic infection of melon root.
At the 24 hours after the final spraying, the root of test melon plants is washed with water to remove the cultivating medium. […] After 3 weeks, the symptoms and severity of wilt disease in melon plants are observed and recorded. […]
The disease severity is calculated by the following formula, wherein si represents the severity of wilt disease; n; represents the number of plants with various severity, and N represents the total number of plants investigated.
Statistical Analysis. The results are analyzed using RStudio v.4.3.0 (R) software. […]

[2] = system: melon's third leaf; assay: Chlorophyll fluorescence photosynthesis: electron transport rate (ETR) of melon's third leaf after foliar spraying; details: foliar spray, after 30 minutes of actinic light, mean ± SE, n=5
Protocol: In the following examples, a melon species Cucumis melo var. makuwa cv. Silver Light (Nongyou Seedling Co., Kaohsiung, Taiwan) is used as the test crop. Seeds of the test crop are stirred and rinsed in warm water at 65° C. for 20 minutes, then further stirred and rinsed with sterile water twice, each for 20 minutes, and then placed in a 25° C. incubator for germination for 48 hours. After the radicle has grown, the seedlings are sown in trays containing Sondermischung (perlite high) cultivating medium (Gramoflor, Germany). When the leaves are fully expanded, the seedlings are transplanted into 3.5-inch plastic pots (inner diameter: 9 cm) and continue planting. The melon plants are ready for following experiments when their first real leaves are fully expanded (the plant is about 7 days of age).
The compositions of 3% (w/v) glucose amended with 1% (w/v) an organic sulfide selected from allicin, dimethyl disulfide (DMDS), lipoic acid, methionine and taurine, with two hundred-fold and four hundred-fold dilution in water, are sprayed on the leaves of the melon seedlings, and the chlorophyll fluorescence photosynthesis of the third real leaf is investigated during the growing period of melons. […] The third real leaf of melon is clipped to measure the leaf chlorophyll fluorescence parameters. […]

| Compound | Disease severity of melon Fusarium wilt (scale 0-4) [1] | ETR (electron transport rate of PSII on third leaf of melon) ([2]; 200X dilution of 1% (w/v) organic sulfide with 3% (w/v) glucose) | ETR (electron transport rate of PSII on third leaf of melon) ([2]; 400X dilution of 1% (w/v) organic sulfide with 3% (w/v) glucose) |
| --- | --- | --- | --- |
| NCCS(=O)(=O)O [Taurine, 2-aminoethanesulfonic acid] | 2.00±0.18 |  |  |
| CSSC [DMDS, dimethyl disulfide] | 1.83±0.25 | 110.24 ± 2.72 μmol electrons m^−2 s^−1 | 117.68 ± 3.83 μmol electrons m^−2 s^−1 |
